In US20250129027A1 (APOGEE PHARMACEUTICALS, INC., priority 2023, published 2025):

Assays:
human recombinant FAAH = human recombinant FAAH (Homo sapiens (Human), UniProt O00519); assay: In vitro inhibition of FAAH activity (fluorescent inhibitor screening kit, AMC arachidonoyl amide); type: biochemical; details: human recombinant FAAH; read-out: Inhibition on FAAH activity (IC50)
How it was run: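 Fluorogenic kit assay: AMC arachidonoyl amide is cleaved by human recombinant FAAH, read at 340-360/450-465 nm. Percent inhibition versus non-treated control; IC50 values derived from multiple compound concentrations where tested.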

human recombinant MAGL = human recombinant MAGL (Homo sapiens (Human), UniProt Q99685); assay: In vitro inhibition of MAGL activity (inhibitor screening kit, 4-nitrophenylacetate); type: biochemical; details: human recombinant MAGL
How it was run: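 Colorimetric kit assay: recombinant human MAGL hydrolyses 4-nitrophenylacetate to 4-nitrophenol, read by absorbance at 405-412 nm. Inhibition given as percentage of signal in treated versus untreated MAGL control.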

Chain of human recombinant MAGL (Q99685 whole entry): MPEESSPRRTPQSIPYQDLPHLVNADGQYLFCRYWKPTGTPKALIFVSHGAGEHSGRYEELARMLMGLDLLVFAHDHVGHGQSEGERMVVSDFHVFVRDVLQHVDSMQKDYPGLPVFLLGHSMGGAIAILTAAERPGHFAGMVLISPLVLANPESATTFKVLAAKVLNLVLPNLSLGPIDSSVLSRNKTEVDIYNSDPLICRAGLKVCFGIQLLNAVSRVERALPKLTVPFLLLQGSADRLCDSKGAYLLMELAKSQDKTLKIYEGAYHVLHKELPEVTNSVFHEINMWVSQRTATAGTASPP
Chain of human recombinant FAAH (O00519 whole entry): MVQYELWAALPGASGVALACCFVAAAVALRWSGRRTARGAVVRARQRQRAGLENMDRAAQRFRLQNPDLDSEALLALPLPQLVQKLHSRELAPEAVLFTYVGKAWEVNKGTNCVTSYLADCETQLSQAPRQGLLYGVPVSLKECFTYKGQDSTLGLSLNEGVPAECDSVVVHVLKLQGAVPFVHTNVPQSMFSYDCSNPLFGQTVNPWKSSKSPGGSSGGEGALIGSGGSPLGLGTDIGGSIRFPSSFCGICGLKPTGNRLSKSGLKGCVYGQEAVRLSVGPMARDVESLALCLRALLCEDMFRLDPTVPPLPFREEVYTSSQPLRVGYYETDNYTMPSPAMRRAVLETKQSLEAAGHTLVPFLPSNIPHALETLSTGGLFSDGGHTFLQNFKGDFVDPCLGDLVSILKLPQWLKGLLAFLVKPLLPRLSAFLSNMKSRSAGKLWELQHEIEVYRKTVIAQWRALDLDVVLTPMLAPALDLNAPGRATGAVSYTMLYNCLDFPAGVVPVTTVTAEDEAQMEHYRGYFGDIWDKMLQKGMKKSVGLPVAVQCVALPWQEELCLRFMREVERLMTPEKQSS

| SMILES | IC50 (human recombinant FAAH) [µM] | IC50 (human recombinant MAGL) [µM] |
| --- | --- | --- |
| O=C(NCC1CCCCC1)Oc1cccc(-c2cncc(-c3nncs3)c2)c1 [Example 208, 3-(5-(1,3,4-thiadiazol-2-yl)pyridin-3-yl)phenyl (cyclohexylmethyl)carbamate] | 0.01 to 0.1 | > 10 |
| O=C(NCc1ccccc1)Oc1cccc(-c2cncc(-c3nncs3)c2)c1 [Example 209, 3-(5-(1,3,4-thiadiazol-2-yl)pyridin-3-yl)phenyl benzylcarbamate] | ~0.1 | > 10 |
| O=C(NC1CCCC1)Oc1cccc(-c2cncc(-c3nncs3)c2)c1 [Example 210, 3-(5-(1,3,4-thiadiazol-2-yl)pyridin-3-yl)phenyl cyclopentylcarbamate] | ~0.1 | > 10 |
| O=C(NC1CCCCC1)Oc1cccc(-c2cncc(-c3nncs3)c2)c1 [Example 211, 3-(5-(1,3,4-thiadiazol-2-yl)pyridin-3-yl)phenyl cyclohexylcarbamate] | > 1 | > 10 |
| O=C(NC1CCCCCC1)Oc1cccc(-c2cncc(-c3nncs3)c2)c1 [Example 212, 3-(5-(1,3,4-thiadiazol-2-yl)pyridin-3-yl)phenyl cycloheptylcarbamate] | 0.01 to 0.1 | > 10 |
| CCCCCCCCNC(=O)Oc1ccc(OC)c(-c2cncc(-c3nncs3)c2)c1 [Example 213, 3-(5-(1,3,4-thiadiazol-2-yl)pyridin-3-yl)-4-methoxyphenyl octylcarbamate] | 0.001 to 0.01 | ~10 |
| COc1ccc(OC(=O)NCC2CCCCC2)cc1-c1cncc(-c2nncs2)c1 [Example 214, 3-(5-(1,3,4-thiadiazol-2-yl)pyridin-3-yl)-4-methoxyphenyl (cyclohexylmethyl)carbamate] | 0.01 to 0.1 | > 10 |
| COc1ccc(OC(=O)NCc2ccccc2)cc1-c1cncc(-c2nncs2)c1 [Example 215, 3-(5-(1,3,4-thiadiazol-2-yl)pyridin-3-yl)-4-methoxyphenyl benzylcarbamate] | 0.1 to 1 | > 10 |
| COc1ccc(OC(=O)NC2CCCC2)cc1-c1cncc(-c2nncs2)c1 [Example 216, 3-(5-(1,3,4-thiadiazol-2-yl)pyridin-3-yl)-4-methoxyphenyl cyclopentylcarbamate] | 0.1 to 1 | > 10 |
| COc1ccc(OC(=O)NC2CCCCCC2)cc1-c1cncc(-c2nncs2)c1 [Example 218, 3-(5-(1,3,4-thiadiazol-2-yl)pyridin-3-yl)-4-methoxyphenyl cycloheptylcarbamate] | 0.01 to 0.1 | > 10 |
| CCCCCCCCNC(=O)Oc1cccc(-c2cncc(-c3ncn[nH]3)c2)c1 [Example 219, 3-(5-(1H-1,2,4-triazol-5-yl)pyridin-3-yl)phenyl octyl carbamate] | 0.001 to 0.01 | ~10 |
| O=C(NCC1CCCCC1)Oc1cccc(-c2cncc(-c3ncn[nH]3)c2)c1 [Example 220, 3-(5-(1H-1,2,4-triazol-5-yl)pyridin-3-yl)phenyl (cyclohexylmethyl)carbamate] | 0.01 to 0.1 | ~10 |
| O=C(NCc1ccccc1)Oc1cccc(-c2cncc(-c3ncn[nH]3)c2)c1 [Example 221, 3-(5-(1H-1,2,4-triazol-5-yl)pyridin-3-yl)phenyl benzyl carbamate] | 0.1 to 1 | > 10 |
| O=C(NCc1ccc2ccccc2c1)Oc1cccc(-c2cncc(-c3ncn[nH]3)c2)c1 [Example 222, 3-(5-(1H-1,2,4-triazol-5-yl)pyridin-3-yl)phenyl (naphthalen-2-ylmethyl)carbamate] | 0.01 to 0.1 | ~10 |
| O=C(NC1CCCC1)Oc1cccc(-c2cncc(-c3ncn[nH]3)c2)c1 [Example 223, 3-(5-(1H-1,2,4-triazol-5-yl)pyridin-3-yl)phenyl cyclopentylcarbamate] | 0.1 to 1 | > 10 |
| O=C(NC1CCCCC1)Oc1cccc(-c2cncc(-c3ncn[nH]3)c2)c1 [Example 224, 3-(5-(1H-1,2,4-triazol-5-yl)pyridin-3-yl)phenyl cyclohexylcarbamate] | 0.1 to 1 | > 10 |
| CCCCCCCCNC(=O)Oc1ccc(O)c(-c2cncc(-c3ncn[nH]3)c2)c1 [Example 226, 3-(5-(1H-1,2,4-triazol-5-yl)pyridin-3-yl)-4-hydroxyphenyl octyl carbamate] | 0.001 to 0.01 | > 10 |
| O=C(NCC1CCCCC1)Oc1ccc(O)c(-c2cncc(-c3ncn[nH]3)c2)c1 [Example 227, 3-(5-(1H-1,2,4-triazol-5-yl)pyridin-3-yl)-4-hydroxyphenyl (cyclohexyl methyl) carbamate] | 0.1 to 1 | > 10 |
| O=C(NCc1ccccc1)Oc1ccc(O)c(-c2cncc(-c3ncn[nH]3)c2)c1 [Example 228, 3-(5-(1H-1,2,4-triazol-5-yl)pyridin-3-yl)-4-hydroxyphenyl benzylcarbamate] | 0.1 to 1 | > 10 |

| SMILES | IC50 (human recombinant FAAH) [µM] | IC50 (human recombinant MAGL) [µM] |
| --- | --- | --- |
| O=C(NC1CCCC1)Oc1ccc(O)c(-c2cncc(-c3ncn[nH]3)c2)c1 [Example 229, 3-(5-(1H-1,2,4-triazol-5-yl)pyridin-3-yl)-4-hydroxyphenyl cyclopentylcarbamate] | 0.01 to 0.1 | > 10 |
| O=C(NC1CCCCC1)Oc1ccc(O)c(-c2cncc(-c3ncn[nH]3)c2)c1 [Example 230, 3-(5-(1H-1,2,4-triazol-5-yl)pyridin-3-yl)-4-hydroxyphenyl cyclohexyl carbamate] | 0.1 to 1 | > 10 |
| CCCCCCCCNC(=O)Oc1ccc(OC)c(-c2cncc(-c3ncn[nH]3)c2)c1 [Example 232, 3-(5-(1H-1,2,4-triazol-5-yl)pyridin-3-yl)-4-methoxyphenyl octylcarbamate] | 0.01 to 0.1 | ~10 |
| COc1ccc(OC(=O)NCC2CCCCC2)cc1-c1cncc(-c2ncn[nH]2)c1 [Example 233, 3-(5-(1H-1,2,4-triazol-5-yl)pyridin-3-yl)-4-methoxyphenyl (cyclohexylmethyl) carbamate] | 0.1 to 1 | ~10 |
| COc1ccc(OC(=O)NCc2ccccc2)cc1-c1cncc(-c2ncn[nH]2)c1 [Example 234, 3-(5-(1H-1,2,4-triazol-5-yl)pyridin-3-yl)-4-methoxyphenyl benzyl carbamate] | > 1 | > 10 |
| COc1ccc(OC(=O)NC2CCCC2)cc1-c1cncc(-c2ncn[nH]2)c1 [Example 235, 3-(5-(1H-1,2,4-triazol-5-yl)pyridin-3-yl)-4-methoxyphenyl cyclopentylcarbamate] | 0.1 to 1 | > 10 |
| COc1ccc(OC(=O)NC2CCCCC2)cc1-c1cncc(-c2ncn[nH]2)c1 [Example 236, 3-(5-(1H-1,2,4-triazol-5-yl)pyridin-3-yl)-4-methoxyphenyl cyclohexyl carbamate] | 0.1 to 1 | > 10 |
| COc1ccc(OC(=O)NC2CCCCCC2)cc1-c1cncc(-c2ncn[nH]2)c1 [Example 237, 3-(5-(1H-1,2,4-triazol-5-yl)pyridin-3-yl)-4-methoxyphenyl cycloheptylcarbamate] | 0.1 to 1 | > 10 |
| CCCCCCCCNC(=O)Oc1cccc(-c2cncc(-c3nnn[nH]3)c2)c1 [Example 238, 3-(5-(1H-tetrazol-5-yl)pyridin-3-yl)phenyl octylcarbamate] | 0.01 to 0.1 | ~10 |
| O=C(NCC1CCCCC1)Oc1cccc(-c2cncc(-c3nnn[nH]3)c2)c1 [Example 239, 3-(5-(1H-tetrazol-5-yl)pyridin-3-yl)phenyl (cyclohexylmethyl)carbamate] | > 1 | > 10 |
| O=C(NCc1ccccc1)Oc1cccc(-c2cncc(-c3nnn[nH]3)c2)c1 [Example 240, 3-(5-(1H-tetrazol-5-yl)pyridin-3-yl)phenyl benzylcarbamate] | > 1 | > 10 |
| O=C(NC1CCCC1)Oc1cccc(-c2cncc(-c3nnn[nH]3)c2)c1 [Example 241, 3-(5-(1H-tetrazol-5-yl)pyridin-3-yl)phenyl cyclopentylcarbamate] | > 1 | > 10 |
| O=C(NC1CCCCC1)Oc1cccc(-c2cncc(-c3nnn[nH]3)c2)c1 [Example 242, 3-(5-(1H-tetrazol-5-yl)pyridin-3-yl)phenyl cyclohexylcarbamate] | > 1 | > 10 |
| O=C(NC1CCCCCC1)Oc1cccc(-c2cncc(-c3nnn[nH]3)c2)c1 [Example 243, 3-(5-(1H-tetrazol-5-yl)pyridin-3-yl)phenyl cycloheptylcarbamate] | > 1 | > 10 |
| CCCCCCCCNC(=O)Oc1ccc(O)c(-c2cncc(-c3nnn[nH]3)c2)c1 [Example 244, 3-(5-(1H-tetrazol-5-yl)pyridin-3-yl)-4-hydroxyphenyl octylcarbamate] | 0.1 to 1 | > 10 |
| O=C(NCC1CCCCC1)Oc1ccc(O)c(-c2cncc(-c3nnn[nH]3)c2)c1 [Example 245, 3-(5-(1H-tetrazol-5-yl)pyridin-3-yl)-4-hydroxyphenyl (cyclohexylmethyl)carbamate] | > 1 | > 10 |
| O=C(NCc1ccccc1)Oc1ccc(O)c(-c2cncc(-c3nnn[nH]3)c2)c1 [Example 246, 3-(5-(1H-tetrazol-5-yl)pyridin-3-yl)-4-hydroxyphenyl benzylcarbamate] | > 1 | > 10 |
| O=C(NC1CCCC1)Oc1ccc(O)c(-c2cncc(-c3nnn[nH]3)c2)c1 [Example 247, 3-(5-(1H-tetrazol-5-yl)pyridin-3-yl)-4-hydroxyphenyl cyclopentylcarbamate] | > 1 | > 10 |
| O=C(NC1CCCCC1)Oc1ccc(O)c(-c2cncc(-c3nnn[nH]3)c2)c1 [Example 248, 3-(5-(1H-tetrazol-5-yl)pyridin-3-yl)-4-hydroxyphenyl cyclohexylcarbamate] | > 1 | > 10 |
